# In patent US20070015823A1, “Ambruticin VS compounds” (priority 2004, published 2007):
# Where two headings read alike, the source gives them in different places.
# What was measured:
# [1] = tested on: A. fumigatus ATCC 204305; test: Broth microdilution antifungal susceptibility, NCCLS M38-A; type: cell-based, Aspergillus fumigatus; details: minimal concentration inhibiting >95% growth, average of at least two assays (except I-l and I-x)
# [2] = tested on: Candida krusei; details: strain 6258; 95% growth inhibition
# [3] = tested on: A. flavus ATCC 204304; test: Broth microdilution antifungal susceptibility, NCCLS M38-A; type: cell-based, Aspergillus flavus; details: minimal concentration inhibiting >95% growth, average of at least two assays (except I-l and I-x)
# [4] = tested on: Cryptococcus neoformans; test: as above; details: for MIC C. neoformans 97-14: strain 97-14; for MIC C. neoformans 97-14 / MIC C. neoformans 11239 / MIC C. neoformans 11240: 50% growth inhibition, range = minimum and maximum of multiple assays; for MIC C. neoformans 11239: strain 11239; for MIC C. neoformans 11240: strain 11240; for MIC: Cryptococcus neoformans
# [5] = tested on: Histoplasma capsulatum; type: cell-based
# [6] = tested on: S. apiospermum; test: Broth microdilution antifungal susceptibility, NCCLS M38-A; type: cell-based, Scedosporium apiospermum; details: for MIC: Scedosporium apiospermum
# [7] = tested on: Candida albicans; details: for MIC C. albicans 24433: strain 24433; for MIC C. albicans 24433 / MIC C. albicans 90028: 50% growth inhibition, range = minimum and maximum of multiple assays; for MIC C. albicans 90028 / MIC0 C. albicans 90028: strain 90028; for MIC0 C. albicans 90028: 95% growth inhibition
# [8] = tested on: Fusarium solani; test: Broth microdilution antifungal susceptibility, NCCLS M38-A; type: cell-based; details: strain 96-1, 50% growth inhibition, range = minimum and maximum of multiple assays
# [9] = tested on: Candida parapsilosis; details: strain 92019; 95% growth inhibition
# [10] = tested on: C. posadasii; test: microbe, parasite or virus in culture; type: cell-based, Coccidioides posadasii; details: for MIC: Coccidioides posadasii
# [11] = tested on: C. immitis; test: microbe, parasite or virus in culture; type: cell-based, Coccidioides immitis; details: for MIC: Coccidioides immitis
# [12] = tested on: Blastomyces dermatitidis; test: Broth microdilution antifungal susceptibility, NCCLS M38-A; type: cell-based; details: for MIC: Blastomyces dermatitidis
# [13] = tested on: Microsporum canis; test: Dermatophyte broth microdilution, NCCLS M38-A; type: cell-based
# [14] = tested on: Trichophyton mentagrophytes; test: Dermatophyte broth microdilution, NCCLS M38-A; type: cell-based
# [15] = tested on: Trichophyton rubrum; test: Dermatophyte broth microdilution, NCCLS M38-A; type: cell-based
# [16] = tested on: Microsporum gypseum; test: Dermatophyte broth microdilution, NCCLS M38-A; type: cell-based
# [17] = tested on: Trichophyton interdigitale; test: Dermatophyte broth microdilution, NCCLS M38-A; type: cell-based
# [18] = tested on: Epidermophyton floccosum; test: Dermatophyte broth microdilution, NCCLS M38-A; type: cell-based
compound,measurement,setting,value
"C[C@@H]1[C@H](O)[C@@H](C)/C=C/C=C/C=C/C=C/C=C/C=C/C=C/[C@H](O[C@@H]2O[C@H](C)[C@@H](O)[C@H](N)[C@@H]2O)C[C@@H]2O[C@](O)(C[C@@H](O)C[C@@H](O)[C@H](O)CC[C@@H](O)C[C@@H](O)CC(=O)O[C@H]1C)C[C@H](O)[C@H]2C(=O)O [Amphotericin B, reference compound]",MIC0 A. fumigatus ATCC 204305,[1],1.53 µg/mL
same,MIC0 C. krusei 6258,[2],1 µg/mL
same,MIC0 A. flavus ATCC 204304,[3],1.67 µg/mL
same,MIC C. neoformans 97-14,[4],0.5 to 2 µg/mL
same,MIC C. neoformans 11239,[4],0.5 to 1 µg/mL
same,MIC C. neoformans 11240,[4],0.5 to 1 µg/mL
same,MIC H. capsulatum G217B,"[5]; strain G217B, 50% growth inhibition",0.19 µg/mL
same,MIC H. capsulatum GS20,"[5]; strain GS20, 50% growth inhibition",0.19 µg/mL
same,MIC S. apiospermum 94-54,"[6]; strain 94-54, 50% growth inhibition, range = minimum and maximum of multiple assays",>32 µg/mL
same,MIC S. apiospermum 98-38,"[6]; strain 98-38, 50% growth inhibition, range = minimum and maximum of multiple assays",4 µg/mL
same,MIC S. apiospermum 98-89,"[6]; strain 98-89, 50% growth inhibition, range = minimum and maximum of multiple assays",8 µg/mL
same,MIC C. albicans 24433,[7],2 to 4 µg/mL
same,MIC C. albicans 90028,[7],2 to 4 µg/mL
same,MIC0 C. albicans 90028,[7],1 µg/mL
same,MIC F. solani 96-1,[8],1 to 2 µg/mL
same,MIC0 C. parapsilosis 92019,[9],1 µg/mL
same,MIC C. posadasii C735,"[10]; strain C735, 80% growth inhibition",1 µg/mL
same,MIC C. posadasii RMSCC 2127,"[10]; strain RMSCC 2127, 80% growth inhibition",1 µg/mL
same,MIC C. posadasii Silveria,"[10]; strain Silveria, 80% growth inhibition",1 µg/mL
same,MIC C. immitis RMS 2281,"[11]; strain RMS 2281, 80% growth inhibition",1 µg/mL
same,MIC C. immitis RS,"[11]; strain RS, 80% growth inhibition",1 µg/mL
same,MIC C. immitis S46,"[11]; strain S46, 80% growth inhibition",1 µg/mL
same,MIC B. dermatitidis Gu,"[12]; strain Gu, 50% growth inhibition",2 µg/mL
same,MIC B. dermatitidis Kr,"[12]; strain Kr, 50% growth inhibition",1 µg/mL
same,MIC B. dermatitidis V,"[12]; strain V, 50% growth inhibition",1 µg/mL
"CC[C@H]1O[C@@H](C(C)C[C@H](C)/C=C/[C@H]2[C@@H](C)[C@@H]2/C=C/[C@@H]2O[C@H](CC(=O)O)CC(O)[C@H]2O)CC=C1C (stereo partly drawn) [Ambruticin S, (5S,6R)-5,6-dihydroxypoly-angioic acid, reference compound]",MIC,"[1]; Aspergillus fumigatus, ATCC204305, read-out: MIC0 A. fumigatus ATCC 204305",29.3 µg/mL
same,MIC,"[3]; Aspergillus flavus, ATCC204304, read-out: MIC0 A. flavus ATCC 204304",28.4 µg/mL
same,MIC,[4]; read-out: MIC C. neoformans 97-14,8 µg/mL
same,MIC,[4]; read-out: MIC C. neoformans 11239,4 µg/mL
same,MIC,[4]; read-out: MIC C. neoformans 11240,16 µg/mL
same,MIC,"[6]; strain 94-54, 50% growth inhibition, range = minimum and maximum of multiple assays, read-out: MIC S. apiospermum 94-54",> 32 µg/mL
same,MIC,"[6]; strain 98-38, 50% growth inhibition, range = minimum and maximum of multiple assays, read-out: MIC S. apiospermum 98-38",> 32 µg/mL
same,MIC,"[6]; strain 98-89, 50% growth inhibition, range = minimum and maximum of multiple assays, read-out: MIC S. apiospermum 98-89",4 µg/mL
same,MIC,"[8]; Fusarium solani, read-out: MIC F. solani 96-1",> 32 µg/mL
same,MIC,[10]; read-out: MIC C. posadasii C735,4 µg/mL
same,MIC,[10]; read-out: MIC C. posadasii RMSCC 2127,2 µg/mL
same,MIC,[10]; read-out: MIC C. posadasii Silveria,2 µg/mL
same,MIC,[11]; read-out: MIC C. immitis RMS 2281,2 µg/mL
same,MIC,[11]; read-out: MIC C. immitis RS,2 µg/mL
same,MIC,[11]; read-out: MIC C. immitis S46,4 µg/mL
same,MIC,[12]; read-out: MIC0 Blastomyces dermatitidis R-35629,0.125 µg/mL
same,MIC,"[12]; strain 04-2167, >95% growth inhibition, read-out: MIC0 Blastomyces dermatitidis 04-2167",0.125 µg/mL
same,MIC,"[12]; strain 04-2508, >95% growth inhibition, read-out: MIC0 Blastomyces dermatitidis 04-2508",0.25 µg/mL
same,MIC,"[12]; strain 04-2915, >95% growth inhibition, read-out: MIC0 Blastomyces dermatitidis 04-2915",1 µg/mL
same,MIC,"[12]; strain 05-106, >95% growth inhibition, read-out: MIC0 Blastomyces dermatitidis 05-106",0.5 µg/mL
same,MIC,"[12]; strain 05-186, >95% growth inhibition, read-out: MIC0 Blastomyces dermatitidis 05-186",0.125 µg/mL
same,MIC,"[12]; strain 05-1391, >95% growth inhibition, read-out: MIC0 Blastomyces dermatitidis 05-1391",0.06 µg/mL
same,MIC,"[12]; strain 05-1707, >95% growth inhibition, read-out: MIC0 Blastomyces dermatitidis 05-1707",≤ 0.015 µg/mL
same,MIC,"[12]; strain 05-1820, >95% growth inhibition, read-out: MIC0 Blastomyces dermatitidis 05-1820",0.125 µg/mL
same,MIC,"[12]; strain 05-1829, >95% growth inhibition, read-out: MIC0 Blastomyces dermatitidis 05-1829",0.25 µg/mL
same,MIC,"[12]; strain 05-2020, >95% growth inhibition, read-out: MIC0 Blastomyces dermatitidis 05-2020",0.06 µg/mL
same,MIC,"[12]; strain R-3529, >95% growth inhibition, read-out: MIC0 Blastomyces dermatitidis R-3529",0.06 µg/mL
"CC[C@H]1O[C@@H](/C(C)=C/[C@H](C)/C=C/[C@H]2[C@@H](C)[C@@H]2/C=C/[C@@H]2O[C@H](CC(=O)O)C[C@H](N(C)C(C)C)[C@H]2O)CC=C1C [I-v, (5S,6R)-5-(N-isoproyl-methylamino)-6-hydroxypolyangioic acid]",MIC0 A. fumigatus ATCC 204305,[1],1.32 µg/mL
same,MIC0 Mc,[13],2 µg/mL
same,MIC0 A. flavus ATCC 204304,[3],1.1 µg/mL
same,MIC0 Tm,[14],4 µg/mL
same,MIC C. neoformans 97-14,[4],0.5 µg/mL
same,MIC C. neoformans 11239,[4],0.25 µg/mL
same,MIC C. neoformans 11240,[4],0.25 to 0.5 µg/mL
same,MIC H. capsulatum G217B,[5],<0.19 µg/mL
same,MIC H. capsulatum GS20,[5],<0.19 µg/mL
same,MIC S. apiospermum 94-54,[6],>16 µg/mL
same,MIC S. apiospermum 98-38,[6],>16 µg/mL
same,MIC S. apiospermum 98-89,[6],0.25 µg/mL
same,MIC C. albicans 24433,[7],>32 µg/mL
same,MIC C. albicans 90028,[7],>32 µg/mL
same,MIC F. solani 96-1,[8],>16 µg/mL
same,MIC C. posadasii C735,[10],0.25 µg/mL
same,MIC C. posadasii RMSCC 2127,[10],0.125 µg/mL
same,MIC C. posadasii Silveria,[10],0.25 µg/mL
same,MIC C. immitis RMS 2281,[11],0.125 µg/mL
same,MIC C. immitis RS,[11],0.25 µg/mL
same,MIC C. immitis S46,[11],0.125 µg/mL
same,MIC0 Tr,[15],5.03 µg/mL
same,MIC0 Blastomyces dermatitidis 04-2167,[12],0.06 µg/mL
same,MIC0 Blastomyces dermatitidis 04-2508,[12],0.06 µg/mL
same,MIC0 Blastomyces dermatitidis 04-2915,[12],0.125 µg/mL
same,MIC0 Blastomyces dermatitidis 05-106,[12],0.03 µg/mL
same,MIC0 Blastomyces dermatitidis 05-186,[12],0.06 µg/mL
same,MIC0 Blastomyces dermatitidis 05-1391,[12],0.03 µg/mL
same,MIC0 Blastomyces dermatitidis 05-1707,[12],≦0.015 μg/mL
same,MIC0 Blastomyces dermatitidis 05-1820,[12],0.06 µg/mL
same,MIC0 Blastomyces dermatitidis 05-1829,[12],0.06 µg/mL
same,MIC0 Blastomyces dermatitidis 05-2020,[12],0.06 µg/mL
same,MIC0 Blastomyces dermatitidis R-3529,[12],0.063 µg/mL
same,MIC0 Blastomyces dermatitidis R-35629,[12],0.03 µg/mL
same,MIC B. dermatitidis Gu,[12],12.5 µg/mL
same,MIC B. dermatitidis Kr,[12],>12.5 µg/mL
same,MIC B. dermatitidis V,[12],12.5 µg/mL
same,MIC0 Mg,[16],2 µg/mL
"CC[C@H]1O[C@@H](/C(C)=C/[C@H](C)/C=C/[C@H]2[C@@H](C)[C@@H]2/C=C/[C@@H]2O[C@H](CC(=O)O)C[C@H](N)[C@H]2O)CCC1C (stereo partly drawn) [IV-a, 20,21-dihydro ambruticin VS-5]",MIC0 A. fumigatus ATCC 204305,[1],0.85 µg/mL
same,MIC0 C. krusei 6258,[2],>32 µg/mL
same,MIC0 Mc,[13],0.5 µg/mL
same,MIC0 A. flavus ATCC 204304,[3],0.18 µg/mL
same,MIC0 Tm,[14],1 µg/mL
same,MIC0 Ti,[17],0.39 µg/mL
same,MIC2 H. capsulatum 05-959,[5],≦0.15 μg/mL
same,MIC2 H. capsulatum 05-1097,[5],≦0.15 μg/mL
same,MIC2 H. capsulatum 05-1159,[5],≦0.15 μg/mL
same,MIC2 C. albicans 05-1422,[7]; strain 05-1422,≦0.15 μg/mL
same,growth of Candida albicans strain 05-1422,"[7]; strain 05-1422, statement in words",inhibits growth
same,MIC2 C. albicans 05-1424,[7]; strain 05-1424,>10 µg/mL
same,MIC2 C. albicans 05-1426,[7]; strain 05-1426,>10 µg/mL
same,MIC0 C. albicans 90028,[7],>32 µg/mL
same,MIC0 Ef,[18],4 µg/mL
same,MIC0 C. parapsilosis 92019,[9],<0.0625 µg/mL
same,MIC2 C. immitis 05-469,[11],≦0.15 μg/mL
same,MIC2 C. immitis 05-955,[11],≦0.15 μg/mL
same,MIC2 C. immitis 05-1387,[11],≦0.15 μg/mL
same,MIC0 Tr,[15],0.5 µg/mL
same,MIC2 B. dermatitidis 05-106,[12],≦0.15 μg/mL
same,MIC2 B. dermatitidis 05-186,[12],≦0.15 μg/mL
same,MIC2 B. dermatitidis 05-1291,[12],≦0.15 μg/mL
same,MIC0 Mg,[16],0.5 µg/mL
